Assay results from US11730712B2, “Functionalized long-chain hydrocarbon mono- and di-carboxylic acids and derivatives thereof, and their use for the prevention or treatment of disease” (ESPERVITA THERAPEUTICS, INC., priority 2021, dated 2023).
Several values for one entry are separate records, joined by “and”; a condition that tells them apart may be missing. Equal entries are not always repeated.

Experiments:
[1] = test system: Hepa1-6 cells; assay: Hepa1-6 cell proliferation; type: cell-based; settings: with or without regorafenib (5 μM)
Excerpt: FIG. 37 show anti-proliferative effect of illustrative compounds of the invention in Hepa1-6 cells.

[2] = test system: DEN-injected mice on high fat high fructose diet; assay: NASH-HCC model by diethylnitrosamine (DEN) induction: tumors, ALT/AST, liver histology; type: in vivo, mouse; design: key to Fibrosis Score, individual mice: 1a: Mild (delicate) zone 3 perisinusoidal fibrosis, requires Masson's trichome stain to identify; 1b: Moderate(dense) zone 3 perisinusoidal fibrosis; 1c: Portal fibrosis only; NAFLD Activity Score, individual mice / NAFLD Activity Score, Avg: scale not given here; settings: 4 weeks; for Fibrosis Score, individual mice / NAFLD Activity Score, individual mice / No. of Surface Tumors, individual mice / NAFLD Activity Score, Avg / No. of Surface Tumors, Avg: 100 mg/kg daily oral gavage; for No. of Surface Tumors, individual mice: mice analyzed by Nanostring; for NAFLD Activity Score, Avg / No. of Surface Tumors, Avg: n=8; for liver fibrosis (trichrome stained livers): 100 mg/kg; for NAFLD activity scores (NAS) / liver inflammation scores / liver steatosis and ballooning scores: 30 and 100 mg/kg; for plasma ALT and AST levels: 30 or 100 mg/kg, dose-dependent
Experimental: Materials and Methods. All experiments were carried out using the guidelines approved by the Animal Research Ethics Board at McMaster University, Canada. Male mice obtained from Steinberg Lab Breeding Colony housed within the McMaster University Central Animal Facility were used for these experiments. The test agents were prepared by solubilizing them in a solution of sodium bicarbonate. Compound I-32 and Compound I-1 were administered at a dose of 30 or 100 mg/kg with a dosing volume of 10 ml/kg by daily oral gavage for 4 weeks. This route was selected because it simulates the oral administration route intended for use in human clinical studies and ensures the correct dose of compound is ingested by each animal. Data are expressed as means±the standard error of the mean. Statistical comparisons were carried out using a one-way analysis of variance followed by Dunnett's post hoc test using GraphPad Prism 8 software. A p-value of less than or equal to 0.05 will be used as the criterion of significance.
Experimental Protocol. At 2 weeks of age mice were injected with diethylnitrosamine (DEN) at 25 mg/kg body weight. After weaning mice were housed with littermates and fed a normal chow diet (Teklad 8640 22/5). […] After 7.5 months, mice were bled from the tail vein and plasma alpha-fetoprotein (AFP) levels were determined. AFP is a serum biomarker of HCC progression in humans and mice treated with DEN. At 8 months, mice were divided into 5 groups, based on mean AFP levels and then received a single daily dose of either vehicle (1.5% CMC and 0.2% Tween-20) or 30 mg/kg or 100 mg/kg of Compound I-32 or Compound I-1 via gavage. Throughout the experiments mice were housed in ventilated cage racks with ad libitum access to the food and water. An automatic timing device was used to maintain an alternating 12-hour cycle of light and dark.
After 4 weeks of daily treatments mice were anesthetized by I.P. injection of Ketamine/Xylazine (150 mg/12.4 mg/kg, respectively) in saline. When anesthetic plane has been achieved, 0.5 ml of blood was drawn by cardiac puncture, and plasma was isolated and frozen in liquid nitrogen. The liver was excised intact and rinsed briefly in PBS on ice. The liver was weighed, a photo was taken and the number of visible lesions on the surface of the liver was counted and recorded. A portion of tumor-free liver (˜200 mg, caudate lobe) and up to three individual tumors were removed, flash frozen in liquid nitrogen and stored for molecular analysis. The remainder of the liver was placed in 10% formalin, fixed for 48 hours, and stored in 70% ethanol until it was embedded in paraffin, sectioned, and mounted on slides for histological analysis.
AFP assay. Before starting the treatment, mice were bled from the tail vein and plasma alpha-fetoprotein (AFP) levels were determined using mouse alpha-Feto protein/AFP Duoset ELISA kit (R&D Systems, Inc., MN, USA) as recommended by the manufacturer. 100 μl sample (1:1000 in reagent diluent) was added on each well of 96-well plate coated with mouse AFP capture antibody. Next, the plates were washed with wash buffer and 100 μl detection antibody was added to each well, followed by the Streptavidin HRP and substrate solution. The reaction was stopped by stop solution and the optical density of each well was measured in a microplate reader set to 450 nm. After measuring AFP levels, mice were divided into five groups (>800 ng/ml) and treatment was initiated.
ALT/AST assay. Plasma Alanine Transaminase (ALT) and Aspartate Transaminase (AST) levels were determined using ALT (CAK1002, Cohesion Biosciences) and AST (CAK 1004, Cohesion Biosciences) activity kits following the manufacturer instructions. 10 μl of plasma sample was added with 50 μl of substrate in 96-well plate. The reaction was carried out for 30 minutes at 37° C., detected by dye reagent I and II and absorbance was measured at 520 nm. […]

[3] = test system: Hepa1-6 cells; assay: Drug interaction (combination) in Hepa1-6 cell proliferation; type: cell-based
Experimental: FIGS. 42A-42B show drug interaction effect of Compound I-32 (FIG. 42A) and Compound I-1 (FIG. 42B) in combination with regorafenib in Hepa1-6 cell proliferation. In FIG. 42A, “1+0.05 (μM)” means 1 μM Compound I-32+0.05 μM regorafenib, etc. In FIG. 42B, “1+0.05 (μM)” means 1 μM Compound I-1+0.05 μM regorafenib, etc.
In FIG. 46A, “1+0.05 (μM)” means 1 μM Compound I-1+0.05 μM sorafenib, etc. […] In FIG. 46B, “1+0.3 (μM)” means 1 μM Compound I-1+0.3 μM lenvatinib, etc. […] In FIG. 46C, “1+0.05 (μM)” means 1 μM Compound I-32+0.05 μM sorafenib, etc. […] In FIG. 46D, “1+0.3 (μM)” means 1 μM Compound I-32+0.3 μM lenvatinib, etc.

Row | Compound | effect on proliferation [1] | Fibrosis Score, individual mice [2] | NAFLD Activity Score, individual mice [2] | No. of Surface Tumors, individual mice [2] | NAFLD Activity Score, Avg [2] | No. of Surface Tumors, Avg [2] | liver fibrosis (trichrome stained livers) [2] | NAFLD activity scores (NAS) [2] | liver inflammation scores [2] | liver steatosis and ballooning scores [2] | plasma ALT and AST levels [2] | drug interaction effect in combination with lenvatinib ([3]; at all tested concentrations) | drug interaction effect in combination with sorafenib ([3]; at various concentrations) | reduction of the number of surface tumors ([2]; 30 mg/kg and 100 mg/kg daily oral) | drug interaction effect in combination with sorafenib ([3]; at all tested concentrations)
1 | CC(C)(CCCCc1cccc(CCCCC(C)(C)C(=O)O)c1)C(=O)O [Compound I-32, 6-[3-(5-carboxy-5-methylhexyl)-phenyl]-2,2-dimethylhexanoic acid] | anti-proliferation effect | 1b (4×) and 1c and 1a (3×) | 2 and 5 and 4 (3×) and 6 and 3 and 1 | 7 and 6 and 3 (2×) and 1 and 30 and 4 and 2 | 3.625 | 7 | fibrosis was significantly reduced | reduced NAFLD activity scores (NAS) at both 30 and 100 mg/kg | without altering inflammation scores | dramatically reduced steatosis | significantly decreased | synergism | synergism |  | 
2 | CC(C)(CCCCc1ccc(CCCCC(C)(C)C(=O)O)cc1)C(=O)O [Compound I-1, 6-[4-(5-carboxy-5-methylhexyl)-phenyl]-2,2-dimethylhexanoic acid] | anti-proliferation effect | 1a (3×) and 1b (3×) and 1c (2×) | 4 (4×) and 6 (2×) and 3 and 2 | 8 and 6 (2×) and 11 and 10 and 14 and 7 and 3 | 4.1 | 8.1 | fibrosis was significantly reduced | reduced NAFLD activity scores (NAS) at both 30 and 100 mg/kg | without altering inflammation scores | dramatically reduced steatosis | significantly decreased | synergism |  | over 70% | synergism
